{"source": "patent US12115155B2", "about": "“Solid dosage form of a nicotine concentration” (Fertin Pharma A/S, priority 2017, dated 2024)", "details": "nicotine concentration increased from 100 microgram/mL to 14,000 microgram/mL"}
{"smiles": "CN1CCCC1c1cccnc1", "note": "(stereo not shown) [nicotine]", "values": [{"measurement": "change of permeability of nicotine across the buccal mucosa", "value": "decrease of about a factor of two"}]}
